Patent publication US9381191B2, “Imidazopyridine derivatives useful in treating diabetes” (METABRAIN RESEARCH, priority 2012, dated 2016)

How the values were obtained:
isolated rat hepatocytes = experiment: Hepatic production of glucose, 20 h incubation; type: cell-based, Wistar rat; settings: rat hepatocytes
Experimental: The hepatocytes are isolated from Wistar rat liver having fasted for 24 h after perfusion of collagenase in the portal vein. 1) The freshly isolated hepatocytes are sown in 6-well plates coated with collagen and containing an adhesion medium (Williams Medium). After adhesion, the medium is replaced with RPMI 1640 medium without any glucose, containing hydrocortisone (7·10^−5M) for a duration from 16 to 18 h. The next day, the glucose hepatic production test is conducted in a Krebs medium for 3 h. The basal conditions are cells incubated with only Krebs, the stimulated conditions are the cells placed in Krebs+lactate+pyruvate, the produced conditions are the cells exposed to chemical compounds in a Krebs/lactate/pyruvate medium. In the case when the compounds are dissolved in DMSO, all the conditions of the tests are met in the presence of a final concentration of 0.1% DMSO. The positive control of the test is the mercaptopicolinate known for its inhibitory action on hepatic production of glucose via the phosphoenolpyruvate carboxykinase. For short term treatments, the compounds are incubated for 3 h. For long term treatments, the compounds are incubated for 20 h at the moment when the hepatocytes are cultivated in RPMI and then added during the hepatic production test for 3 h. At the end of the 3 hours of incubation, the supernatant is recovered for measurement of glucose with a colorimetric method using glucose oxidase. The cells are lysed with a 0.1% NaOH aqueous solution in order to measure the amount of protein with the Lowry method. The results are expressed in mmol of glucose per mg of protein.

GK rats = experiment: Antidiabetic activity in GK (Goto-Kakisaki) rats; type: in vivo, rat; settings: single oral dose 50 mg/kg
Experimental: The antidiabetic activity of compound 118 was evaluated in GK rats, a non-obese model of diabetes of type II. This model was obtained by cross-breeding of Wistar rats selected on the basis of a slight intolerance to glucose. These rats have the majority of dysfunctions observed in diabetes of type II in humans: hyperglycaemia, intolerance to glucose, insulin-resistance, and deteriorated insulin response to glucose. These animals were bred at Metabrain and were housed in an animal housing facility with a regulated temperature (22±2° C.) under constant humidity (50±20%) with a day/night cycle of 12 h (light from 7 h-19 h) and have access ad libitum to food and drink. The housing and experimentation conditions comply with the European directives relating to health and ethical treatment of laboratory animals (ETS123). In this study, the rats used are male 16-week old GK rats having fasted for 2 hours before beginning the study (postabsorptive condition). Monitoring of glycaemia is carried out on 2 groups of rats: One group treated with the compound 118 orally at the single dose of 50 mg/kg and a control group treated orally with the carrier. A blood sample was taken at T0 just before administration of the compound 118 or of the carrier and at times T1 h, T2 h, T4 h and T6 h after administration. The determination of glycaemia is achieved from a drop of blood taken from the tail measured with a glucometer Accu-Check Performa. The results shown below are expressed as a percentage of the decrease of glycaemia at T1 h, T2 h, T4 h and T6 h for the group treated with the compound 118 as compared with the control group

[1] = test system: isolated perfused pancreases of N0STZ diabetic rats; experiment: Insulin secretion in response to glucose at isolated perfused pancreases of N0STZ diabetic rats; set-up: species or system rat; settings: glucose 16.5 mM, control group 560 ± 71
Experimental: The pancreas was taken on rats made to be diabetic by injection of Streptozotocin on the day of birth and anaesthetized with Pentobarbital (Nembutal©: 45 mg/kg; intraperitoneal route). These rats have a specific deficiency of the insulin response to glucose, as observed in humans with diabetes of type II. The isolation and the perfusion of the pancreas were achieved according to a modification of the procedure described by Sussman et al.. The effect of the compounds or reference substances is tested for 35 minutes (from t=20 min to t=55 min) in Krebs buffer, and then 20 minutes (from t=55 min to t=75 min) in the presence of glucose 16.5 mM. The concentration of insulin secreted into the medium is measured by an Elisa assay (ELISA Alpco Cat no. 80-INSRTH-E10). The results are expressed as an average +/−SEM (Standard Error of the Mean) of several experiments.

INS-1 cells = experiment: Stimulation test of insulin secretion by INS-1 cells; type: cell-based; settings: Rattus norvegicus, INS1, 1 h; 10 μM; insulin secretion by INS-1 cells in response to glucose; read-out: HGP % of ctrl @ 10 μM
Experimental: The different compounds were tested on an INS-1 beta-pancreatic line in order to evaluate their capability of potentializing the insulin secretion in response to glucose. Very briefly, the cells are cultivated in a culture medium, RPMI 1640 with 10 mM glucose containing 1 mM of sodium pyruvate, 50 μM of 2-mercaptoethanol, 2 mM of glutamine, 10 mM of HEPES, 100 IU/ml of penicillin, 100 μg/ml of streptomycin and 10% of inactivated fetal calf serum, as described by Asfari et al.. For the insulin secretion test, the INS-1 cells are sown and cultivated in 96-well plates. After 3 days of cultivation at 37° C. in a humid atmosphere (95% air/5% CO2), the medium is removed and the cells are incubated for 16 h in a medium containing 5 mM of glucose and 1% of inactivated fetal calf serum. On the day of the test, the cells are washed with a Krebs buffer (pH 7.4) containing 0.1% of bovine albumin and then pre-incubated for 30 min at 37° C. in this same buffer containing 2.8 mM of glucose. Finally, the cells are again washed with Krebs buffer and then incubated for 1 h in the buffer of the secretion test (Krebs, pH 7.4 containing 0.1% of bovine albumin and 3.5 mM of glucose and molecules to be evaluated). At the end of the test, the cell supernatant is recovered in order to measure therein the secreted insulin, by means of an ELISA kit using a rat anti-insulin antibody (ELISA Alpco Cat no. 80-INSRTH-E10). Each condition is tested in triplicate. The 3.5 mM glucose, the 10^−7M GLP-1 and the Forskoline 10^−7/IBMX 10^−5M mixtures are used as positive controls of the test. A compound stimulates the secretion of insulin if this factor is greater than or equal to 130% of the control for a given glucose dose.

| SMILES | HGP % of ctrl @ 50 μM (isolated rat hepatocytes) | % of activity on glycemia (GK rats; T1 h after administration, p = 0.0242) [%] | % of activity on glycemia (GK rats; T2 h after administration, p = 0.0171) [%] | % of activity on glycemia (GK rats; T4 h after administration, p = 0.1468 NS) [%] | % of activity on glycemia (GK rats; T6 h after administration, p = 0.2450 NS) [%] | reduction of hyperglycaemia (GK rats) | Insulin secretion peak at G16.5 mM, Tested product ([1]; tested concentration 10 μM) | HGP % of ctrl @ 100 μM (isolated rat hepatocytes; 100 μM) | insulin secretion, % of control at 10 µM (INS-1 cells) [%] | Insulin secretion peak at G16.5 mM, Tested product ([1]; tested concentration 1 μM) [μU/min.] |
| --- | --- | --- | --- | --- | --- | --- | --- | --- | --- | --- |
| O=C(O)CSCc1nc2ccc(Cl)cn2c1C#Cc1cccc(C(F)(F)F)c1 [Derivative 118, 2-[[6-chloro-3-[2-[3-(trifluoro-methyl)-phenyl]ethynyl]imidazo[1,2-a]pyridin-2-yl]methylsulfanyl] acetic acid] | 57 % of ctrl | −14 | −15 | −10 | −8 | capable of reducing hyperglycaemia |  |  |  |  |
| O=C(O)COCc1nc2ccccn2c1C#Cc1ccc(F)cc1 [Derivative 44, 2-((3-((4-fluorophenyl)ethynyl)-imidazo[1,2-a]pyridin-2-yl)methoxy)acetic acid] |  |  |  |  |  |  | 1 724 μU/min. |  |  |  |
| CC(C)OC(=O)COCc1nc2ccccn2c1C#Cc1ccc(F)cc1 [Derivative 54, isopropyl 2-((3-((4-fluorophenyl)ethynyl)imidazo [1,2-a]pyridin-2-yl)methoxy) acetate] | 64 % of ctrl |  |  |  |  |  | 1 637 μU/min. | 44 % of ctrl | 203 | 961 ± 130 |
